Assay results reported in ChEMBL document CHEMBL3046299, “Neonicotinoid substituents forming a water bridge at the nicotinic acetylcholine receptor” (J Agric Food Chem, 2009).

Tests used:
[1] = Displacement of [3H]IMI from nicotinic acetylcholine receptor in Drosophila melanogaster brain
[2] = system: Aphis gossypii; assay: Insecticidal activity against adult Aphis gossypii (cotton aphid) in cucumber cotyledons assessed as mortality at 500 ppm treated for 5 secs before adult infestation measured after 72 hr; format: functional; conditions: in Cucumis sativus
[3] = system: Drosophila melanogaster; assay: Displacement of [3H]IMI from nicotinic acetylcholine receptor in Drosophila melanogaster brain at Ki concentration

Structure (SMILES) | Ki [1] [µM] | mortality at 500 ppm [2] [%] | inhibition [3] [%]
O=[N+]([O-])/N=C1\NCCN1CC1CCOC1 (stereo not given) | 0.11 | 100 | –
CN/C(=N\[N+](=O)[O-])NCc1cnc(Cl)s1 [CLOTHIANIDINE] | 0.004 | 100 | –
O=[N+]([O-])/N=C1\NCCN1Cc1ccc(Cl)nc1 [IMIDACLOPRID] | 0.003 | 100 | –
O=[N+]([O-])/N=C1\NCCN1CCC(O)C(F)(F)F (stereo not given) | 18.1 | – | –
CN/C(=N/CC1CCOC1)N[N+](=O)[O-] (stereo not given) [DINOTEFURAN] | 0.076 | 100 | –
O=[N+]([O-])/N=C1\N(CCCF)CCN1Cc1ccc(Cl)nc1 | 0.74 | – | –
O=[N+]([O-])/N=C1\NCCN1CCCCl | 3.6 | 55 | –
O=[N+]([O-])/N=C1\NCCN1CCCF | 1.7 | 55 | –
O=C(CCN1CCN/C1=N\[N+](=O)[O-])C(F)(F)F | ≥ 100 | 0 | 43
CO/N=C(\C)CCN1CCN/C1=N\[N+](=O)[O-] | 61.2 | 2 | –
CC(=O)O/C(=C\CN1CCN/C1=N\[N+](=O)[O-])C(F)(F)F | 16.3 | – | –
O=[N+]([O-])/N=C1\NCCN1C[C@H]1C[C@@H]2O[C@@H]2C1 | 14.8 | 18 | –
O=[N+]([O-])/N=C1\NCCN1CCCCF | 3.5 | 27 | –
O=[N+]([O-])/N=C1\NCCN1C[C@@H]1C[C@@H]2O[C@@H]2C1 | 8.1 | 0 | –
CC(=O)CCN1CCN/C1=N\[N+](=O)[O-] | 1.2 | 8 | –
O=[N+]([O-])/N=C1\NCCN1CC1CC=CC1 | 20.1 | 20 | –
O=[N+]([O-])/N=C1\N(CCC(O)C(F)(F)F)CCN1Cc1ccc(Cl)nc1 (stereo not given) | 5 | – | –
CC(=O)CCN1CCN(Cc2ccc(Cl)nc2)/C1=N/[N+](=O)[O-] | 6.1 | – | –
CCCN1CCN/C1=N\[N+](=O)[O-] | 12.8 | 31 | –
O=[N+]([O-])/N=C1\NCCN1CCF | ≥ 100 | 47 | 44
C/C(CCN1CCN/C1=N\[N+](=O)[O-])=N\O | 40.5 | 10 | –
CCCN1CCN(Cc2ccc(Cl)nc2)/C1=N/[N+](=O)[O-] | 0.89 | – | –
